Measured values from patent publication US12630632B2, “Bispecific HER2 and CD3 binding molecules” (Memorial Sloan Kettering Cancer Center, priority 2017, dated 2026).
“Also recorded” adds a separate entry of the source.

Experiments:
[1] = system: SCCHN cell line PCI-30; assay: Cell proliferation assay (WST-8); type: cell-based, human; conditions: 10 nM kinase inhibitors, 10 μg/mL antibodies
Method: (§1) Cell proliferation was determined using an ELISA plate reader and the WST-8 kit (Dojindo technologies) following the manufacturer's instructions and using the formula: % survival rate=(Sample-Background)/(Negative control-Background). Lapatinib (MSKCC pharmacy) was ground using a mortar and pestle and suspended in DMSO as previously described. To determine statistical significance, the results were analyzed using one-way ANOVA using Prism 6.0.
(§2) For cell proliferation assays, 5,000 tumor cells were plated using RPMI-1640 supplemented with 10% FBS in a 96 well plate for 36 hours before being treated with lapatinib or the antibodies at the specified concentrations. Cell proliferation was determined using an ELISA plate reader and the WST-8 kit (Dojindo technologies) following the manufacturer's instructions and using the formula: % survival rate=(Sample-Background)/(Negative control-Background). Lapatinib (Memorial Sloan Kettering Cancer Center pharmacy) was ground using a mortar and pestle and suspended in DMSO as previously described (Chen et al., 2012, Molecular cancer therapeutics 11:660-669). To determine statistical significance, the results were analyzed using one-way ANOVA using Prism 6.0.
(§3) For tumor cell proliferation, 5,000 tumor cells were plated using RPMI-1640 supplemented with 10%, fetal bovine serum (“FBS”) in a 96 well plate for 36 hours before being treated with—kinase inhibitors or the antibodies at the specified concentration. Cell proliferation was determined using the cell counting WST-8 kit (Dojindo technologies) following the manufacturer's instructions and using the formula: % survival rate=(Sample-Background)(Negative control-Background). Lapatinib was ground using a mortar and pestle and suspended in DMSO as previously described (Chen et al., Molecular cancer therapeutics 2012; 11:660-9). To determine statistical significance, the results were analyzed using one-way ANOVA using Prism 6.0.

[2] = system: cervical carcinoma HeLa cells; assay: Cell proliferation assay (WST-8); type: cell-based, human; conditions: 10 nM kinase inhibitors, 10 μg/mL antibodies
Method: as §1, §2, §3

[3] = system: osteosarcoma cell line U2OS; assay: Cell proliferation assay (WST-8); type: cell-based, human; conditions: 10 nM kinase inhibitors, 10 μg/mL antibodies
Method: as §1, §2, §3

[4] = system: HER2(+) SCCHN PCI-13 cells; assay: Blocking of HER2-BsAb T-cell cytotoxicity by trastuzumab or anti-CD3; type: cell-based, human; conditions: for effect of blocking antibody on HER2-BsAb induced T cell cytotoxicity: HER2-positive cells pre-incubated with blocking antibody (Examples 1, 2)
Method: (§4) The ^51Cr release assay was performed with effector T cells cultured in vitro in the presence of anti-CD3 and anti-CD28 for about 14 days. All target tumor cells were harvested with 2 mM EDTA in PBS, labeled with ^51Cr (Amersham, Arlington Height, IL) at 100 μCi/106 cells at 37° C. for 1 h. 5000 target cells/well were mixed with 50,000 effector cells (E:T=10:1) and BsAb antibodies in 96-well polystyrene round-bottom plates (BD Biosciences) to a final volume of 250 μl/well. The plates were incubated at 37° C. for 4 h. The released ^51Cr in supernatant was counted in a γ-counter (Packed Instrument, Downers Grove, IL). Percentage of specific release was calculated using the formula: (experimental cpm−background cpm)/(total cpm−background cpm)×100%, where cpm represented counts per minute of ^51Cr released. Total release was assessed by lysis with 10% SDS (Sigma, St Louis, Mo), and background release was measured in the absence of effector cells. EC50 was calculated using SigmaPlot software.

[5] = system: naïve T cells; assay: T cell proliferation (WST-8); type: cell-based, human; conditions: 67 nM antibody, 6 days
Method: For T cell proliferation, naïve T cells were purified from human PBMC using Pan T cell isolation kit (Miltenyi Biotec). 2×10^5 purified T cells were mixed with different antibodies in 96-well cell culture plate to a final volume of 250 μl/well. T cells were cultured and maintained in RPMI-1640 supplemented with 10% FBS in 37° C. for 6 days. T cell proliferation was quantitated using the WST-8 kit as described above.

[6] = system: HCC1954 breast cancer xenograft; assay: s.c. tumor plus i.v. effector cells xenograft model; type: in vivo, DKO mice; conditions: i.v. PBMC 7.5×10^6 once per week for 2 weeks, 100 μg i.v. twice per week for 4 weeks (Example 4)
Description: Three humanized mouse xenograft models were used: (1) intravenous tumor plus intravenous effector cells; (2) subcutaneous tumor plus subcutaneous effector cells; and (3) subcutaneous tumor plus intravenous effector cells. Subcutaneous xenografts were created with 5×10^6 cells suspended in Matrigel (Corning Corp, Tewksbury MA) and implanted in the flank of DKO mice. Effector peripheral blood mononuclear cell (PBMC) cells were purified from buffy coats purchased from the New York Blood Center. Prior to every experimental procedure, PBMCs were analyzed for their percentage of CD3, CD4, CD8 and CD56 cells to ensure consistency. […] Tumor size was measured using (1) hand-held TM900 scanner (Pieira, Brussels, BE); (2) Calipers; or (3) bioluminescence. Bioluminescence imaging was conducted using the Xenogen In Vivo Imaging System (IVIS) 200 (Caliper LifeSciences). Briefly, mice were injected intravenously with 0.1 mL solution of D-luciferin (Gold Biotechnology; 30 mg/mL stock in PBS). […]
Effector PBMC cells and ATCs were prepared as described above. Prior to every experimental procedure, PBMCs and ATCs were analyzed by FACS for their percentage of CD3, CD4, CD8 and CD56 cells to ensure consistency. […] Tumor size was measured using 1) hand-held TM900 scanner (Pieira, Brussels, BE), 2) Calipers, or 3) Bioluminescence. […]

[7] = system: HeLa; assay: T-cell cytotoxicity, 51Cr release assay; type: cell-based, human; conditions: HeLa pre-treated with lapatinib
Method: as §4
Cell cytotoxicity was assayed by ^51Cr release as previously described (Xu et al., Cancer immunology research 2015; 3:266-77), and EC50 was calculated using SigmaPlot software. Effector PBMC cells were purified from buffy coats purchased from the New York Blood Center. […]

C#Cc1cccc(Nc2ncnc3cc(OCCOC)c(OCCOC)cc23)c1 [erlotinib]
sensitivity in proliferation assay [1]: resistant | sensitivity in proliferation assay [2]: resistant | sensitivity in proliferation assay ([2]; listed as Erlotinib): pan-resistant | sensitivity in proliferation assay [3]: minimal sensitivity; also recorded: resistant

huOKT3: humanized anti-CD3 OKT3 IgG1, bivalent
effect of blocking antibody on HER2-BsAb induced T cell cytotoxicity [4]: block | effect of blocking antibody on HER2-BsAb T-cell cytotoxicity ([4]; PCI-13, 0.1 μg/mL HER2-BsAb, 10 μg/mL blocking antibodies): prevented; also recorded: abrogates | T cell proliferation in the absence of tumor targets [5]: robust T cell proliferation

Pembrolizumab
tumor volume [6]: no effect

Atezolizumab
tumor volume [6]: no effect

CS(=O)(=O)CCNCc1ccc(-c2ccc3ncnc(Nc4ccc(OCc5cccc(F)c5)c(Cl)c4)c3c2)o1 [lapatinib]
effect of pretreatment on sensitivity to HER2-BsAb mediated cytotoxicity [7]: enhances | sensitivity in proliferation assay [1]: resistant | sensitivity in proliferation assay [2]: no effect on cell proliferation; also recorded: resistant | sensitivity in proliferation assay ([2]; listed as Lapatinib): pan-resistant | sensitivity in proliferation assay [3]: resistant | sensitivity in proliferation assay ([3]; listed as Lapatinib): minimal sensitivity

CCOc1cc2ncc(C#N)c(Nc3ccc(OCc4ccccn4)c(Cl)c3)c2cc1NC(=O)/C=C/CN(C)C [neratinib]
sensitivity in proliferation assay [1]: resistant | sensitivity in proliferation assay [2]: resistant | sensitivity in proliferation assay ([2]; listed as Neratinib): pan-resistant | sensitivity in proliferation assay [3]: minimal sensitivity; also recorded: resistant

OKT3: CD3 specific blocking mAb
effect of blocking antibody on HER2-BsAb induced T cell cytotoxicity [4]: prevented
